US12174198B2, “Methods of characterizing condensate-associated characteristics of compounds and uses thereof” (Dewpoint Therapeutics, Inc., priority 2019, dated 2024)
Structures can show the parent of a compound that is named as a salt.

Molecular target: T1, FUS-SNAP condensates (Homo sapiens, UniProt P35637)
T1 sequence (P35637 1-526): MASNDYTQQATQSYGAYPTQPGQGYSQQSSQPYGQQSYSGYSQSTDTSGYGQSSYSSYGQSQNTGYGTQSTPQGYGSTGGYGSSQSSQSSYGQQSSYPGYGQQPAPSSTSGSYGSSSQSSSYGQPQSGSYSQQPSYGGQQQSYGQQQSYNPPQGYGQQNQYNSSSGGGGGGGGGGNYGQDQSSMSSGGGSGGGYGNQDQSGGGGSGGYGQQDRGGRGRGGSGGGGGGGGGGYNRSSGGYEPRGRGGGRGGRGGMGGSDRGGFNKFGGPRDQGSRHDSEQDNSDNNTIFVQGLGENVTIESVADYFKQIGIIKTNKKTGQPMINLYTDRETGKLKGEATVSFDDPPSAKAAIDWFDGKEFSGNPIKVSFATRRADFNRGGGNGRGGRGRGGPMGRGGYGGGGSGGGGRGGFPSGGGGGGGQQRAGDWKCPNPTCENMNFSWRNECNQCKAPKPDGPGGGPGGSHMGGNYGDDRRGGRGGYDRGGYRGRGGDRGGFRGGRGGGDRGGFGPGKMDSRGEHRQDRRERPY
Assay: Fluorescence imaging of dye partitioning in FUS-SNAP condensates (I-in, I-out)
Type: physicochemical
Details: for Ratio of intensity inside:outside FUS-SNAP Condensates Day 1 / Ratio of intensity inside:outside FUS-SNAP Condensates Day 2 / Ratio of intensity inside:outside FUS-SNAP Condensates Average: I-in:I-out; for Ratio of intensity inside:outside FUS-SNAP Condensates Day 1 / Ratio of intensity inside:outside FUS-SNAP Condensates Day 2 / Ratio of intensity inside:outside FUS-SNAP Condensates Average / Intensity Inside with Dye Average / Intensity Inside with Dye 1 / Intensity Inside with Dye 2 / Intensity Inside with Dye 3 / Intensity Outside with Dye Average / Intensity Outside with Dye 1 / Intensity Outside with Dye 2 / Intensity Outside with Dye 3: 10 μM dye; for Ratio of intensity inside:outside FUS-SNAP Condensates Average: average of two days; for Intensity Inside with Dye Average / Intensity Inside with Dye 1 / Intensity Inside with Dye 2 / Intensity Inside with Dye 3 / Intensity Inside Dye-No Dye: inside FUS-SNAP condensate; for Intensity Inside with Dye Average / Intensity Inside with Dye 1 / Intensity Inside with Dye 2 / Intensity Inside with Dye 3 / Intensity Outside with Dye Average / Intensity Outside with Dye 1 / Intensity Outside with Dye 2 / Intensity Outside with Dye 3: 5 μM protein; for Intensity Inside with Dye Average / Intensity Outside with Dye Average: average of three images; for Intensity Inside with Dye Average / Intensity Inside with Dye 1 / Intensity Inside with Dye 2 / Intensity Inside with Dye 3 / Intensity Inside Dye-No Dye / Intensity Outside with Dye Average / Intensity Outside with Dye 1 / Intensity Outside with Dye 2 / Intensity Outside with Dye 3 / Intensity Outside (Dye-No Dye): one day of experiments; for Intensity Inside with Dye 1 / Intensity Outside with Dye 1: image 1; for Intensity Inside with Dye 2 / Intensity Outside with Dye 2: image 2; for Intensity Inside with Dye 3 / Intensity Outside with Dye 3: image 3; for Intensity Inside Dye-No Dye / Intensity Outside (Dye-No Dye): background corrected; for Intensity Outside with Dye Average / Intensity Outside with Dye 1 / Intensity Outside with Dye 2 / Intensity Outside with Dye 3 / Intensity Outside (Dye-No Dye): outside FUS-SNAP condensate
Procedure, shortened: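 Partitioning read by spinning-disk confocal imaging (60× oil, dye-specific exposure 1-1000 ms) of condensates formed from 5 μM protein (FUS-SNAP or untagged PGL-3) plus 10 μM dye, 75 mM KCl, 1% DMSO, pH 7.25. Background-subtracted intensities inside and beside one condensate per image, three images averaged.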

Row | SMILES | Ratio of intensity inside:outside FUS-SNAP Condensates Day 1 | Ratio of intensity inside:outside FUS-SNAP Condensates Day 2 | Ratio of intensity inside:outside FUS-SNAP Condensates Average | Intensity Inside with Dye Average | Intensity Inside with Dye 1 | Intensity Inside with Dye 2 | Intensity Inside with Dye 3 | Intensity Inside Dye-No Dye | Intensity Outside with Dye Average | Intensity Outside with Dye 1 | Intensity Outside with Dye 2 | Intensity Outside with Dye 3 | Intensity Outside (Dye-No Dye)
1 | O=C1OC2(c3ccc(O)cc3Oc3cc(O)ccc32)c2ccccc21 [Dye 6, Fluorescein] | 1.7 | 1.4 | 1.5 | 6277.1 | 6328.8 | 6300.8 | 6201.7 | 6141.9 | 3784.7 | 3771.1 | 3840.2 | 3742.7 | 3680.6
2 | COC(=O)c1ccccc1-c1c2ccc(=N)cc-2oc2cc(N)ccc12.Cl [Dye 14, Rhodamine 123] | 1.3 | 1.4 | 1.3 | 2970.4 | 3123.1 | 2956.9 | 2831.2 | 2835.2 | 2277.6 | 2174.8 | 2322.7 | 2335.1 | 2173.5
3 | CCN(CC)c1ccc2c(-c3ccccc3C(=O)O)c3ccc(=[N+](CC)CC)cc-3oc2c1 [Dye 16, Rhodamine B] | 4.4 | 3.8 | 4.1 | 2041.4 | 2154.5 | 2074.7 | 1895.0 | 1941.7 | 540.2 | 546.8 | 508.3 | 565.6 | 440.3

The remaining lines, values ahead:

Row | Ratio of intensity inside:outside FUS-SNAP Condensates Day 1 | Ratio of intensity inside:outside FUS-SNAP Condensates Day 2 | Ratio of intensity inside:outside FUS-SNAP Condensates Average | Intensity Inside with Dye Average | Intensity Inside with Dye 1 | Intensity Inside with Dye 2 | Intensity Inside with Dye 3 | Intensity Inside Dye-No Dye | Intensity Outside with Dye Average | Intensity Outside with Dye 1 | Intensity Outside with Dye 2 | Intensity Outside with Dye 3 | Intensity Outside (Dye-No Dye) | SMILES
4 | 6.1 | 5.9 | 6.0 | 4956.7 | 4695.6 | 5663.6 | 4511.0 | 4857.1 | 902.4 | 808.3 | 1011.5 | 887.5 | 802.5 | O=C([O-])c1ccccc1C1=c2cc3c4c(c2Oc2c1cc1c5c2CCCN5CCC1)CCC[N+]=4CCC3 [Dye 17, Rhodamine 101 inner salt]
5 | 7.6 | 11.0 | 9.3 | 15051.4 | 15394.5 | 13908.5 | 15851.1 | 14919.5 | 2092.2 | 2064.2 | 1988.2 | 2224.3 | 1959.9 | N#CC1=c2cc3c4c(c2Oc2c1cc1c5c2CCCN5CCC1)CCC[N+]=4CCC3 [Dye 18, Rhodamine 800]
